Results on 28 compounds are retold here after patent US20240083897A1, “GCN2 MODULATING COMPOUNDS AND USES THEREOF” (HiberCell, Inc., priority 2021, published 2024).

Each structure is given as a SMILES string. Where a name gives a salt, the structure may show the parent alone. Read-outs that look alike come from different tables or passages of the source.

This test deals with GCN2 (Homo sapiens (Human), UniProt Q9P2K8). In words: TR-FRET biochemical assay for inhibition of GCN2.
[1] abbreviates: GCN2 2 nM, 100 nM GFP-eIF2a, 150 μM ATP, TR-FRET.

GCN2, sequence (Q9P2K8 whole entry): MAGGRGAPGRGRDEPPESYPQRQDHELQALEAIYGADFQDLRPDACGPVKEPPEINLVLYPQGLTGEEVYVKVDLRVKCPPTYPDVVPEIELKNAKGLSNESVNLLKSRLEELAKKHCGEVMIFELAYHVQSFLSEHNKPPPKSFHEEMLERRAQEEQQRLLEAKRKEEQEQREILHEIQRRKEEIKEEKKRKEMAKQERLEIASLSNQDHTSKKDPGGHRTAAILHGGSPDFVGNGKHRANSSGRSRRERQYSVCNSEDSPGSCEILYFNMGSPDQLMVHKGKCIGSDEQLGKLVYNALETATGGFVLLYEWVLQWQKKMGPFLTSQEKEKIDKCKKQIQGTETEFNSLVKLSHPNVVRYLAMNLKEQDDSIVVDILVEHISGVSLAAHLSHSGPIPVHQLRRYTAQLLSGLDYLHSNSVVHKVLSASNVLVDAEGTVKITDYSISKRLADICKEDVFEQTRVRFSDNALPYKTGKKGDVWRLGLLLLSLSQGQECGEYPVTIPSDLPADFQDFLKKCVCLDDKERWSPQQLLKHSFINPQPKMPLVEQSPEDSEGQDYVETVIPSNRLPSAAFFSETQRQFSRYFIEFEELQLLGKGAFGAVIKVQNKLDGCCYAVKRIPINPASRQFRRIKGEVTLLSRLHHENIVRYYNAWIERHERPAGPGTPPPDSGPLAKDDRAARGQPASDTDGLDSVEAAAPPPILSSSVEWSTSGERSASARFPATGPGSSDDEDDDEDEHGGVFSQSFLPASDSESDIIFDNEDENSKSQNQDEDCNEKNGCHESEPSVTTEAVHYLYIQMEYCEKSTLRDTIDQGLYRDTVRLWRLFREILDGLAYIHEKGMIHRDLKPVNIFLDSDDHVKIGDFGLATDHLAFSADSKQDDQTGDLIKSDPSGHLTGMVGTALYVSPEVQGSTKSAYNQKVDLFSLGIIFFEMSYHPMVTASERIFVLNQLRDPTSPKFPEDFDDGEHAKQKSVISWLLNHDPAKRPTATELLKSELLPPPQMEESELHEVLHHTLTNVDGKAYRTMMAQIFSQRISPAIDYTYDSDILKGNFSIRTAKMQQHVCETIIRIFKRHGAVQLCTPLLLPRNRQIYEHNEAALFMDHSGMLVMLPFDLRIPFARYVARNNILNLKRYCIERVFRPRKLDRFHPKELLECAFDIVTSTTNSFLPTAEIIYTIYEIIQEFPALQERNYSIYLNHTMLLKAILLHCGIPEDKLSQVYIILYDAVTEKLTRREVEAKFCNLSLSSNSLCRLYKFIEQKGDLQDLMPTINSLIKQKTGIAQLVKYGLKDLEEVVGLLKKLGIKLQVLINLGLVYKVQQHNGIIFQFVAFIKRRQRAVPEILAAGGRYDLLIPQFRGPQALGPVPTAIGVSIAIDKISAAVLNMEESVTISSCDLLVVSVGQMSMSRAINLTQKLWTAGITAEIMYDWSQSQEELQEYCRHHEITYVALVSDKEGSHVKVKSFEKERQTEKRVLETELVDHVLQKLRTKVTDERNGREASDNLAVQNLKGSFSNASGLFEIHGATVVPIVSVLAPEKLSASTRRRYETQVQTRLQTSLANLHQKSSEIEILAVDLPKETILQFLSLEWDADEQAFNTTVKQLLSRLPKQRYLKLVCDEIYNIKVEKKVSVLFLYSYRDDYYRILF

One may read the IC50 as the point on the concentration scale where inhibition reaches its midpoint. With `Cc1nnc(-c2ncn3c2CC[C@H](c2c(F)ccc(NS(=O)(=O)c4cc(F)cnc4C)c2F)C3)[nH]1` [Compound 134-2, N-[2,4-difluoro-3-[(6R)-1-(5-methyl-4H-1,2,4-triazol-3-yl)-5H,6H,7H,8H-imidazo[1,5-a]pyridin-6-yl]phenyl]-5-fluoro-2-methylpyridine-3-sulfonamide], the half-inhibitory concentration (IC50) under setting [1] was less than 50 nM.

Turning to `COc1ncc(Cl)cc1S(=O)(=O)Nc1ccc(F)c([C@H]2CCc3c(-c4nnc(C)[nH]4)ncn3C2)c1F` [Compound 130-2, 5-chloro-N-[2,4-difluoro-3-[(6R)-1-(5-methyl-4H-1,2,4-triazol-3-yl)-5H,6H,7H,8H-imidazo[1,5-a]pyridin-6-yl]phenyl]-2-methoxypyridine-3-sulfonamide], under setting [1], the IC50 is less than 50 nM.

`COc1ncc(C#N)cc1S(=O)(=O)Nc1ccc(F)c([C@@H]2CCc3c(-c4nnc(C)[nH]4)ncn3C2)c1F` [Compound 135-1, 5-cyano-N-[2,4-difluoro-3-[(6S)-1-(5-methyl-4H-1,2,4-triazol-3-yl)-5H,6H,7H,8H-imidazo[1,5-a]pyridin-6-yl]phenyl]-2-methoxypyridine-3-sulfonamide]: the half-inhibitory concentration (IC50) fell in the range of 50 to 500 nM.

Consider `COc1ncc(C#N)cc1S(=O)(=O)Nc1ccc(F)c(-c2ccn3c(-c4ncc[nH]4)ncc3c2F)c1F` [Compound 42, 5-cyano-N-[2,4-difluoro-3-[8-fluoro-3-(1H-imidazol-2-yl)imidazo[1,5-a]pyridin-7-yl]phenyl]-2-methoxypyridine-3-sulfonamide], for which the half-inhibitory concentration (IC50) under setting [1] is less than 50 nM.

`Cc1ncc(F)cc1S(=O)(=O)Nc1ccc(F)c(-c2ccc3c(-c4nc5c([nH]4)CCCC5)ncn3c2)c1F` [Compound 149, N-(2,4-difluoro-3-(1-(4,5,6,7-tetrahydro-1H-benzo[d]imidazol-2-yl)imidazo[1,5-a]pyridin-6-yl)phenyl)-5-fluoro-2-methylpyridine-3-sulfonamide] registered a concentration for half-maximal inhibition (IC50) under setting [1] of less than 50 nM.

For `CNC(=O)c1ncn2cc(-c3c(F)ccc(NS(=O)(=O)c4cc(Cl)cnc4OC(C)C)c3F)ncc12` [Compound 168, 6-[3-(5-chloro-2-isopropoxypyridine-3-sulfonamido)-2,6-difluorophenyl]-N-methylimidazo[1,5-a]pyrazine-1-carboxamide], the concentration for half-maximal inhibition (IC50) was 50 to 500 nM.

`Cc1cnc(-c2ncn3cc(-c4c(F)ccc(NS(=O)(=O)c5cc(Cl)cnc5C)c4F)ccc23)[nH]1` [Compound 56, 5-chloro-N-[2,4-difluoro-3-[1-(4-methyl-3H-imidazol-2-yl)imidazo[1,5-a]pyridine-6-yl]phenyl]-2-methylpyridine-3-sulfonamide] showed an IC50 under setting [1] of less than 50 nM.

In the case of `COc1ncc(C#N)cc1S(=O)(=O)Nc1ccc(F)c(-c2ccc3c(-c4nc5ccccc5[nH]4)ncn3c2)c1F` [Compound 66, N-[3-[1-(1H-1,3-benzodiazol-2-yl)imidazo[1,5-a]pyridin-6-yl]-2,4-difluorophenyl]-5-cyano-2-methoxypyridine-3-sulfonamide], the IC50 under setting [1] was less than 50 nM.

Compound `COc1ncc(Cl)cc1S(=O)(=O)Nc1ccc(F)c(-c2ccn3c(-c4ncc[nH]4)ncc3c2)c1F` [Compound 35, 5-chloro-N-[2,4-difluoro-3-[3-(1H-imidazol-2-yl)imidazo[1,5-a]pyridin-7-yl]phenyl]-2-methoxypyridine-3-sulfonamide] gave an IC50 under setting [1] of less than 50 nM.

`Cc1nnc(-c2ncn3cc(-c4c(F)ccc(NS(=O)(=O)c5cc(F)cnc5C)c4F)ccc23)[nH]1` [Compound 60, N-[2,4-difluoro-3-[1-(5-methyl-4H-1,2,4-triazol-3-yl)imidazo[1,5-a]pyridin-6-yl]phenyl]-5-fluoro-2-methylpyridine-3-sulfonamide] gave an IC50 under setting [1] of less than 50 nM.

With `COc1ncc(Cl)cc1S(=O)(=O)Nc1ccc(F)c(-c2ccc3c(-c4nnc(C(F)(F)F)[nH]4)ncn3c2)c1F` [Compound 102, 5-chloro-N-(2,4-difluoro-3-[1-[5-(trifluoromethyl)-4H-1,2,4-triazol-3-yl]imidazo[1,5-a]pyridin-6-yl]phenyl)-2-methoxypyridine-3-sulfonamide], the IC50 lay in the range of 50 to 500 nM.

In turn, `COc1ncc(Cl)cc1S(=O)(=O)Nc1ccc(F)c(-c2ccn3c(-c4ncc[nH]4)ncc3c2F)c1F` [Compound 41, 5-chloro-N-[2,4-difluoro-3-[8-fluoro-3-(1H-imidazol-2-yl)imidazo[1,5-a]pyridin-7-yl]phenyl]-2-methoxypyridine-3-sulfonamide] had an IC50 under setting [1] of less than 50 nM.

Turning to `COc1ncc(Cl)cc1S(=O)(=O)Nc1ccc(F)c(-c2cn3cnc(C(=O)NCCS(C)(=O)=O)c3cn2)c1F` [Compound 164, 6-[3-(5-chloro-2-methoxypyridine-3-sulfonamido)-2,6-difluorophenyl]-N-(2-methanesulfonylethyl)imidazo[1,5-a]pyrazine-1-carboxamide], the IC50 under setting [1] is less than 50 nM.

As to `CNC(=O)c1ncn2cc(-c3c(F)ccc(NS(=O)(=O)c4cc(C#N)cnc4OC)c3F)ncc12` [Compound 92, 6-[3-(5-cyano-2-methoxypyridine-3-sulfonamido)-2,6-difluorophenyl]-N-methylimidazo[1,5-a]pyrazine-1-carboxamide], the IC50 lay within 50 to 500 nM.

Regarding `Cc1cnc(-c2ncn3cc(-c4c(F)ccc(NS(=O)(=O)c5cc(F)cnc5C)c4F)ccc23)[nH]1` [Compound 50, N-[2,4-difluoro-3-[1-(4-methyl-3H-imidazol-2-yl)imidazo[1,5-a]pyridin-6-yl]phenyl]-5-fluoro-2-methylpyridine-3-sulfonamide], the IC50 under setting [1] was less than 50 nM.

Turning to `COc1ncc(F)cc1S(=O)(=O)Nc1ccc(F)c(-c2ccc3c(-c4nc(Cl)c[nH]4)ncn3c2F)c1F` [Compound 115, N-[3-[1-(4-chloro-1H-imidazol-2-yl)-5-fluoroimidazo[1,5-a]pyridin-6-yl]-2,4-difluorophenyl]-5-fluoro-2-methoxypyridine-3-sulfonamide], the IC50 under setting [1] is less than 50 nM.

Compound `Cc1ncc(Cl)cc1S(=O)(=O)Nc1ccc(F)c(-c2ccc3c(-c4ncc[nH]4)ncn3c2)c1F` [Compound 25, 5-chloro-N-[2,4-difluoro-3-[1-(1H-imidazol-2-yl)imidazo[1,5-a]pyridin-6-yl]phenyl]-2-methylpyridine-3-sulfonamide] came in with an IC50 under setting [1] of less than 50 nM.

Under setting [1], `COc1ncc(C#N)cc1S(=O)(=O)Nc1ccc(F)c(-c2cn3cnc(-c4nc5ccccc5[nH]4)c3cn2)c1F` [Compound 112, N-[3-[1-(1H-1,3-benzodiazol-2-yl)imidazo[1,5-a]pyrazin-6-yl]-2,4-difluorophenyl]-5-cyano-2-methoxypyridine-3-sulfonamide] returned an IC50 of less than 50 nM.

`COc1ncc(Cl)cc1S(=O)(=O)Nc1ccc(F)c(-c2ccc3c(-c4nnc(C)[nH]4)ncn3c2)c1F` [Compound 57, 5-chloro-N-[2,4-difluoro-3-[1-(5-methyl-4H-1,2,4-triazol-3-yl)imidazo[1,5-a]pyridin-6-yl]phenyl]-2-methoxypyridine-3-sulfonamide]: the IC50 under setting [1] was less than 50 nM.

As to `CNC(=O)c1ncn2c1CO[C@H](c1c(F)ccc(NS(=O)(=O)c3cc(Cl)cnc3OC)c1F)C2` [Compound 154-2, (6R)-6-[3-(5-chloro-2-methoxypyridine-3-sulfonamido)-2,6-difluorophenyl]-N-methyl-5H,6H,8H-imidazo[4,3-c][1,4]oxazine-1-carboxamide hydrochloride], the half-maximal inhibitory concentration (IC50) lay within 50 to 500 nM.

As for `COc1ncc(Cl)cc1S(=O)(=O)Nc1ccc(F)c(-c2ccc3c(-c4nnc[nH]4)ncn3c2)c1F` [Compound 29, 5-chloro-N-[2,4-difluoro-3-[1-(4H-1,2,4-triazol-3-yl)imidazo[1,5-a]pyridin-6-yl]phenyl]-2-methoxypyridine-3-sulfonamide], the IC50 is less than 50 nM.

For `Cc1ncc(Cl)cc1S(=O)(=O)Nc1ccc(F)c(-c2ccc3c(-c4ncc[nH]4)ncn3n2)c1F` [Compound 95, 5-chloro-N-[2,4-difluoro-3-[5-(1H-imidazol-2-yl)imidazo[1,5-b]pyridazin-2-yl]phenyl]-2-methylpyridine-3-sulfonamide], the half-maximal inhibitory concentration (IC50) under setting [1] was less than 50 nM.

`COc1ncc(Cl)cc1S(=O)(=O)Nc1ccc(F)c([C@@H]2Cn3cnc(-c4ncc[nH]4)c3CN2C)c1F` [Compound 73-1, 5-chloro-N-[2,4-difluoro-3-[(6R)-1-(1H-imidazol-2-yl)-7-methyl-5H,6H,8H-imidazo[1,5-a]pyrazin-6-yl]phenyl]-2-methoxypyridine-3-sulfonamide] came in with an IC50 of 50 to 500 nM.

Under setting [1], `COc1ncc(Cl)cc1S(=O)(=O)Nc1ccc(F)c(-c2cn3cnc(C(=O)NCCO)c3cn2)c1F` [Compound 161, 6-[3-(5-chloro-2-methoxypyridine-3-sulfonamido)-2,6-difluorophenyl]-N-(2-hydroxyethyl)imidazo[1,5-a]pyrazine-1-carboxamide] yielded a concentration for half-maximal inhibition (IC50) of less than 50 nM.

On to `CNC(=O)c1ncc2c(F)c(-c3c(F)ccc(NS(=O)(=O)c4cc(Cl)cnc4OC)c3F)ccn12` [Compound 21, 7-[3-(5-chloro-2-methoxypyridine-3-sulfonamido)-2,6-difluorophenyl]-8-fluoro-N-methylimidazo[1,5-a]pyridine-3-carboxamide], for which, under setting [1], the IC50 is less than 50 nM.

For `CNC(=O)c1ncn2c1CC[C@@H](c1c(F)ccc(NS(=O)(=O)c3cc(C#N)cnc3OC)c1F)C2` [Compound 68-2, (S)-6-(3-((5-cyano-2-methoxypyridine)-3-sulfonamido)-2,6-difluorophenyl)-N-methyl-5,6,7,8-tetrahydroimidazo[1,5-a]pyridine-1-carboxamide], the IC50 lay in the range of 50 to 500 nM.

In turn, `COc1ncc(F)cc1S(=O)(=O)Nc1ccc(F)c(-c2ccc3c(-c4ccn(C)n4)ncn3c2)c1F` [Compound 46, N-[2,4-difluoro-3-[1-(1-methylpyrazol-3-yl)imidazo[1,5-a]pyridin-6-yl]phenyl]-5-fluoro-2-methoxypyridine-3-sulfonamide] came in with an IC50 under setting [1] of less than 50 nM.

Under setting [1], `CNC(=O)c1ncn2nc(-c3c(F)ccc(NS(=O)(=O)c4cc(F)cnc4C)c3F)ccc12` [Compound 12, 2-[2,6-difluoro-3-(5-fluoro-2-methylpyridine-3-sulfonamido)phenyl]-N-methylimidazo[1,5-b]pyridazine-5-carboxamide] showed an IC50 of less than 50 nM.
